The target in assay [1] is T1, MLKL F148A executioner domain (Homo sapiens, UniProt Q8NB16, F148A).
T1 construct: 80 µM MLKL N-terminal executioner domain (residues 1 to 154) was used; GST (thrombin cleavage site) (cleaved yes)
T1 sequence (Q8NB16 1-154 F148A): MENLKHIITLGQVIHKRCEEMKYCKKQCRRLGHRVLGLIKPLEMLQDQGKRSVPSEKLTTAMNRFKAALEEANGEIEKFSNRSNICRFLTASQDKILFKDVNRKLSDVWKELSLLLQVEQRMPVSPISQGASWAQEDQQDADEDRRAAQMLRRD
Nature of the assay: Functional NMR assay (detachment of α-helix 6), F148A variant. Type of assay: biochemical. An excerpt:
To test the significance of the additional interaction between α-helix 6 and the four-helix bundle provided by the xanthine compounds stacking to the phenyl ring of Phe148, we used a described functional NMR assay ([12]). Binding of phytic acid (IP6) and the detergent β-D-nonylmaltoside (NM) led to the detachment of α-helix 6, which can be monitored in ^1H,^15N-correlation spectra by the altered chemical shift of the Hε1–Nε1 correlation of Trp133 and the backbone N–H correlation of Ala141 ([12]). […] Adding 12 mM NM or 500 µM IP6 led to the appearance of a second very weak peak reporting on the detached α-helix 6 with a population of the activated state (pact) of 1% and 4%, respectively (Fig. 3). […]
Fig. 3. […] The spectra depicted in A are measured with the WT protein and in B with the F148A variant. […] The asterisk means that no active conformation could be detected. Double asterisks indicate data not determined.
For the functional NMR assay ^1H,^15N-correlation spectra were recorded on a Bruker Avance III HD 600-MHz NMR spectrometer equipped with a cryogenic QCI probe in 2.5-mm NMR tubes at 298 K. Spectra were recorded with 64 complex points in the indirect dimension, 96 scans, and an interscan delay of 2 s. […] Spectra were analyzed, and peaks were integrated in CcpNnmr analysis ([39]).

The next assay has as its system Jurkat FADD−/− cells. Description: Jurkat FADD−/− necroptosis assay. Type of assay: cell-based. Conditions: Homo sapiens, 10 ng/mL huTNFα, 24 h, Cell Titer Glo viability, read-out: Jurkat NEC IC50. On the procedure:
(§1) For the Jurkat FADD^−/− Necroptosis assay, compounds were serially diluted in 100% dimethyl sulfoxide (DMSO) (Sigma-Aldrich catalog no. 41641), and 250 nL was transferred to a sterile 384-well microtiter plate (PerkinElmer catalog no. 6007688) via Echo liquid handler (LABCYTE). Five thousand Jurkat FADD ^−/− cells (ATCC catalog no. CRL-2572) in 20 µL of modified Roswell Park Memorial Institute medium (Gibco catalog no. 10491), 10% fetal calf serum (Gibco catalog no. 100500), 1x Anti/Anti (Gibco catalog no. 15240-062), 1x L-Glutamax (Gibco catalog no. 35050-087), and 1% PenStrep (SIGMA catalog no. P4333) were seeded into each well of the prepared assay plate with compound. Cells and compounds were incubated for 30 min at 37 °C (humidified incubator with 5% CO2). After incubation, 5 µL of recombinant human TNFα (huTNFα) (Biotrend catalog no. cyt-223; 10 ng/mL final concentration [f.c.]) was added to the cells, followed by an incubation of 24 h at 37 °C. Following the incubation, the experimental plates were equilibrated to room temperature (30 min) before 25 µL of Cell Titer Glo Luminescent Cell Viability Assay System reagent (Promega catalog no. G7571) was added to the plate wells, incubated at room temperature for ∼10 min. After incubation, the samples were analyzed for luminescence by using an Envision reader (PerkinElmer).
(§2) Each assay plate contained wells with “high” and “low” controls. High controls (100% CTL) were defined as cells treated with DMSO, and low controls (0% CTL) were defined as cells treated with 10 ng/mL recombinant huTNFα. IC50 values were calculated based on the percentage of control values using a four-parameter-fitting model.
(§3) All cellular assays were done for Cpd 1, Cpd 2, Cpd 3, Cpd 4, and Cpd 5 in duplicate and in quadruplet for NSA.

Another assay concerns U937 cells. Nature of the assay: U937 necroptosis assay. Type of assay: cell-based. Conditions: Homo sapiens, U-937, huTNFα plus 10 µM zVAD-fmk, read-out: U937 NEC IC50. Here is the method:
as §1, §2
MLKL antagonists were also evaluated in a necroptosis assay with U937 cells ([26]) (ATCC catalog no. CRL-1593.2). The assay procedure with U937 cells was as described for the Jurakt FADD^−/− necroptosis assay with the following modifications: 8,000 cells were seeded per well, and, in addition to the recombinant huTNFα, cells were also incubated in the presence of 10 µM (f.c.) carbobenzoxy-valyl-alanyl-aspartyl-[O-methyl]-fluoromethylketone (zVAD-fmk) (Enzo Life Sciences catalog no. ALX-260-020). Low controls (0% CTL) were defined as cells treated with 100 ng/mL recombinant huTNFα plus 10 µM zVAD-fmk.
as §3

Broadly, the IC50 is the concentration needed to halve the response being measured.

As for `Cn1c(=O)c2c(nc(S(C)(=O)=O)n2C)n(CC#Cc2cccc(O)c2)c1=O` [Cpd 3], in assay [1] (500 µM compound alone), the “Induction of the active state by compound alone” value is on record as “small population of the active state”. The “Population of the activated state (pact), α-helix 6 detached” value in assay [1] (12 mM NM + 500 µM IP6 + 500 µM compound) turned out to be 90%. Also, the 50% inhibitory concentration (IC50) worked out at 541 nM with Jurkat FADD−/− cells and 271 nM with U937 cells.

Values taken from publication PMC7777204, “Locking mixed-lineage kinase domain-like protein in its auto-inhibited state prevents necroptosis” (Proceedings of the National Academy of Sciences of the …, 2020).
